From PubChem BioAssay AID1380 (University of Pittsburgh Molecular Library Screening Center, 2008)
The source made the active and inactive calls. No rule for the calls is given here.

Target: Cyclin-dependent kinase 7 (Homo sapiens) (UniProt P50613)
Assay: CDK7 kinase inhibition, dose response, counter-screen for PKD inhibitor project, biochemical, 57K library addition (AID 1380)
Conditions: CDK7 biochemical kinase assay, counterscreen

Chain of Cyclin-dependent kinase 7 (Homo sapiens) (P50613 whole entry, looked up): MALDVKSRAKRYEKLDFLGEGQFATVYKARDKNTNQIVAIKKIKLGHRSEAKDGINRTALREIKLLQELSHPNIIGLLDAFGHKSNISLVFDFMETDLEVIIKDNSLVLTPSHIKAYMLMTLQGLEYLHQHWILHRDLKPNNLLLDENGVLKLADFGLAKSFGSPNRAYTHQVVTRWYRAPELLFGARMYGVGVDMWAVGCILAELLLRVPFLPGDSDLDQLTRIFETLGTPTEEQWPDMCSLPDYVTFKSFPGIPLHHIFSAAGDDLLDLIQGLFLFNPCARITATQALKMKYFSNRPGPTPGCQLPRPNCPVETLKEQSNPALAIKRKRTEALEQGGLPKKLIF

C/C(=N\Nc1ncc(Cl)cc1Cl)c1ccccn1
IC50: > 100 µM (inactive)
